From PMC8453481, “OFF-State-Specific Inhibition of the Proprotein Convertase Furin” (ACS Chemical Biology, 2021)
Read-outs that look alike come from different tables or passages of the source.

What was measured:
[1] = ref 29; cited from earlier work
PC5/6 = target: T1, PC5/6 (Homo sapiens, UniProt Q92824); assay: Enzyme kinetics with fluorogenic substrate pyr-ERTKR-AMC, PC5/6; assay type: biochemical; conditions: pH 7.0, 37 °C; for Ki: competitive inhibition model, constant inhibitor concentration, substrate dilution series, triplicate
T1 construct: PC5/6 (Arg33-Gly634, UNP[41] Q92824); made in house; host or cells: HEK293S cells, stably transfected (pCDNA3.1(+)), purified from conditioned medium
T1 sequence (Q92824 33-634): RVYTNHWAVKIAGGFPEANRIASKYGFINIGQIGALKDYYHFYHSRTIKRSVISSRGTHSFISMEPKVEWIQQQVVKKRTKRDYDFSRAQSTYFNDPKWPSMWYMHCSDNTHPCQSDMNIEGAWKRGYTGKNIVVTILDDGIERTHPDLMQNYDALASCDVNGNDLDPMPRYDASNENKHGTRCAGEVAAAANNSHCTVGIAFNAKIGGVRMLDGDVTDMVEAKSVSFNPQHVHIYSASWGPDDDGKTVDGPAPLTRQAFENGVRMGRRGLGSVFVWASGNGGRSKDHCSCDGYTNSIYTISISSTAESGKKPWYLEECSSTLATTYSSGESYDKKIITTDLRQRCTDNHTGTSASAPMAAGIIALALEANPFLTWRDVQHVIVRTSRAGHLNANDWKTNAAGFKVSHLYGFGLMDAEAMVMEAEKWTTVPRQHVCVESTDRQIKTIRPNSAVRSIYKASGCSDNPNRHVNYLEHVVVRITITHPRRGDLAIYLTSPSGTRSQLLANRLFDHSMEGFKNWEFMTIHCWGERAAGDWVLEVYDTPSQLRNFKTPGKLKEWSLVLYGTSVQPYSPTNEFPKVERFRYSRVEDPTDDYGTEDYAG
Procedure: (§1) HEK293S cells were stably transfected with the coding sequences of human furin,[20] PC5/6 (Arg33-Gly634, UNP[41] Q92824) and PC7 (Pro44-Thr667, UNP[41] Q16549) cloned into the pCDNA3.1(+) vector (ThermoFisher). Cells were grown in DMEM (4.5 g L^–1 glucose, 2 mM L-glutamine, 110 mg l^–1 sodium pyruvate, 3.7 g L^–1 NaHCO3, nonessential amino acids) supplemented with 10% (v/v) FBS. Polyclonal selection of stable cell lines was conducted in the presence of 500 μg mL^–1 G418 (Geneticin). The cells were grown in multilayer flasks (HyperFlask M, Corning) without G418 for large-scale protein expression. The medium of confluent expression cultures was exchanged with DMEM supplemented with 2 mM sodium butyrate as well as with FBS (2% (v/v), furin) or without FBS (PC5/6 and PC7). The medium exchange was repeated five (furin) or two (PC5/6 and PC7) times, and the centrifuged medium (20 min, 5500 g, 4 °C) was stored at −80 °C until further use.
(§2) The purification of human furin from a conditioned medium has been shown previously.[20] […]
(§3) Enzyme kinetic measurements were performed in 100 mM HEPES/NaOH, at pH 7.0, 2 mM CaCl2, and 0.2% (v/v) Triton X 100 with the fluorogenic substrate pyr-ERTKR-7-amino-4-methylcoumarin (Bachem) at 37 °C. The 100 μL reactions were prepared in 96-well black half-area plates (Corning), preincubated for 15 min at 37 °C and measured in a 96-well plate reader (Tecan infinite 200) at excitation and emission wavelengths of 380 and 460 nm. […] The KM values were determined with 1:2 dilution series of the substrate in the absence of an inhibitor (4.7 ± 0.4 μM for furin, 2.5 ± 0.2 μM for PC5/6, and 19.3 ± 0.8 μM for PC7; Figure S7). Enzyme kinetic data were evaluated with GRAPHPAD PRISM (GraphPad Software) using the prebuild “Michaelis–Menten” model to calculate KM and a competitive inhibition model (v = Vmax × S/[S + KM(1 + I/Ki)]; v = reaction velocity, Vmax = maximum velocity, S = substrate concentration, KM = Michaelis–Menten constant, Ki = inhibition constant) for Ki determination. […]

PC7 = target: T2, PC7 (Homo sapiens, UniProt Q16549); assay: Enzyme kinetics with fluorogenic substrate pyr-ERTKR-AMC, PC7; assay type: biochemical; conditions: for potency loss / increase of the Ki for PC7 compared with furin: Ki PC7 versus Ki furin; for Ki: competitive inhibition model, constant inhibitor concentration, substrate dilution series, triplicate
T2 construct: PC7 (Pro44-Thr667, UNP[41] Q16549); made in house
T2 sequence (Q16549 142-667 limits assumed): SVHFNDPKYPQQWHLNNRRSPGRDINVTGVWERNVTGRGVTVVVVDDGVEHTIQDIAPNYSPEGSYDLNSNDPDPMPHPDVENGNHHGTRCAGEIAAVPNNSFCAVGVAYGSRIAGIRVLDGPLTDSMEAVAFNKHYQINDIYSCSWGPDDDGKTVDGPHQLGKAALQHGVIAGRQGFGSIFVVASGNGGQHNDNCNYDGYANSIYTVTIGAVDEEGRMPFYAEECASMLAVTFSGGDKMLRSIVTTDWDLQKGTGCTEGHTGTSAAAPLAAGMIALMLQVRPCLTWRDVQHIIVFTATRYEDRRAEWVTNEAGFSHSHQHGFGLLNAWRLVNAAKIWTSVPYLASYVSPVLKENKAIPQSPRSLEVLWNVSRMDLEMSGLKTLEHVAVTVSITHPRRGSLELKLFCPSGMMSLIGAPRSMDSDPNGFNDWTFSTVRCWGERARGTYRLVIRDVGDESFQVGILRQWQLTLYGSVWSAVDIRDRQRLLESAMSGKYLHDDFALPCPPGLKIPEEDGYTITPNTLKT
Procedure: as §1
The purification of human furin from a conditioned medium has been shown previously.[20] PC5/6 and PC7 were purified by immobilized metal affinity chromatography and gel permeation chromatography (GPC), as shown for furin but excluding the inhibitor affinity purification step.[20] PC7 (50 μg mL^–1) was fully activated in 50 mM Tris/HCl, at pH 7.5, 10 mM CaCl2, and 0.15 M NaCl, at pH 7.5, in the presence of 2.0 μg mL^–1 thermolysin for 16 h at 37 °C. To remove thermolysin, the reaction mixture was concentrated in an ultrafiltration device (30 kDa cutoff, amicon, Millipore) and subjected to GPC (both steps at 4 °C). Purified PC5/6 and PC7 were stored at −20 °C.
Enzyme kinetic measurements were performed in 100 mM HEPES/NaOH, at pH 7.0, 2 mM CaCl2, and 0.2% (v/v) Triton X 100 with the fluorogenic substrate pyr-ERTKR-7-amino-4-methylcoumarin (Bachem) at 37 °C. The 100 μL reactions were prepared in 96-well black half-area plates (Corning), preincubated for 15 min at 37 °C and measured in a 96-well plate reader (Tecan infinite 200) at excitation and emission wavelengths of 380 and 460 nm. Because of the autofluorescence of inhibitor 1, the Ki values were determined at constant inhibitor concentrations (1: 20 μM for furin, 15 μM for PC5/6 and 50 μM for PC7; 2: 10 μM for furin, 5 μM for PC5/6 and 15 μM for PC7) and 1:2 dilution series of the substrate (Figure S7). The KM values were determined with 1:2 dilution series of the substrate in the absence of an inhibitor (4.7 ± 0.4 μM for furin, 2.5 ± 0.2 μM for PC5/6, and 19.3 ± 0.8 μM for PC7; Figure S7). Enzyme kinetic data were evaluated with GRAPHPAD PRISM (GraphPad Software) using the prebuild “Michaelis–Menten” model to calculate KM and a competitive inhibition model (v = Vmax × S/[S + KM(1 + I/Ki)]; v = reaction velocity, Vmax = maximum velocity, S = substrate concentration, KM = Michaelis–Menten constant, Ki = inhibition constant) for Ki determination. All measurements were performed in triplicate.

human furin [2] = target: T3, human furin (Homo sapiens, UniProt P09958); assay: Enzyme kinetics with fluorogenic substrate pyr-ERTKR-AMC, furin; assay type: biochemical; conditions: pH 7.0, 37 °C; for Ki: competitive inhibition model, constant inhibitor concentration, substrate dilution series, triplicate
T3 construct: made in house; host or cells: HEK293S cells, stably transfected (pCDNA3.1(+)), purified from conditioned medium
T3 sequence (P09958 108-574 limits assumed): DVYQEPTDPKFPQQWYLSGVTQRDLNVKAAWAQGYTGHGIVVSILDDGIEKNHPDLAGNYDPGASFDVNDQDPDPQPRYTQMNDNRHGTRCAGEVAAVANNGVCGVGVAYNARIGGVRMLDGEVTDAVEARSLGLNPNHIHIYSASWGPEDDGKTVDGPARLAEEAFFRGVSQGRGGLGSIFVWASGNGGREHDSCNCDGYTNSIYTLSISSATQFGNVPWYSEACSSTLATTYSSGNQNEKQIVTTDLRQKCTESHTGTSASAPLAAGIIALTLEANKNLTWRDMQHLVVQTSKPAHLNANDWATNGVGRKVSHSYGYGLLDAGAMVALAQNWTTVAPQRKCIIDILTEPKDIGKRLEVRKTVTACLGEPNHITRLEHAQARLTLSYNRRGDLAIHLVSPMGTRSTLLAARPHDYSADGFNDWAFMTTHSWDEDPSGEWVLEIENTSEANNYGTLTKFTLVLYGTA
Procedure: as §1, §2, §3

human furin [3] = target: T3, human furin; assay: Crystallography-based inhibitor titration of furin crystals (occupancy refinement); assay type: binding
Procedure: Because of the lower number of specific interactions, we assumed that the binding affinity of 2 for the S4 pocket is lower as compared to the S1 pocket. […] The strength of the electron density directly correlates to the occupation of the binding sites with the inhibitor. Indeed, we found the S1 pocket already occupied by 2 at 0.4 mM as indicated by the occupancy of 75% from crystallographic refinement (Table S2). […] The refined occupancy of inhibitor 2 at the S1 pocket at 40 mM concentration was 0.94. It should be noted that water molecules occupy the substrate binding pockets in absence of any ligand.[22] The binding sites of these water molecules overlap with the binding sites of the inhibitors and affect crystallographic occupancy refinement. Thus, the refined occupation should always be considered in context with the electron density (Figure 6C–E). […] We also observed a third binding site of 2 and 3 outside of the substrate binding cleft. Here, two inhibitor molecules are stacked between two arginine residues of a crystal contact. This binding mode is specific for the crystal lattice and thus is not expected to occur in solution (Figure S5B, D).
The optimized soaking solutions contained either 1.0 M NaCl, 200 mM Mes/NaOH, at pH 5.5, 10% (w/v) PEG8000, and 20% (v/v) DMSO or 0.25 M NaCl, 200 mM Mes/NaOH, at pH 5.5, 20% (w/v) PEG8000, and 20% (v/v) DMSO and were supplemented with the specific inhibitors. Inhibitors 1 and 2 were soaked at 20 mM concentration in 1 M NaCl containing soaking solution for 0.5 h. Inhibitor 3 and 4 were soaked in 0.25 M NaCl containing soaking solution for 0.5 h at an inhibitor concentration of 100 mM and 20 mM, respectively. For the inhibitor titration experiments with 2, 40 mM, 4 mM, or 0.4 mM of the inhibitor was soaked for 0.5 h in 0.25 M NaCl-containing soaking solution. Soaked crystals were flash cooled in liquid N2. Diffraction data collection was performed at the synchrotron beamline BL14.2[33] (BESSY-II) of Helmholtz-Zentrum Berlin (HZB). The data were processed using XDS[34] with XDS-APP[35] (v2.0) and the CCP4 program suite[36] (v.7.1.001). COOT[37] (v.0.8.9.2) was used for model building. Refinement was performed in PHENIX[38] (v1.18.2) using the PDB ID 5JXG([22]) as an initial model. One specific Rfree-set (initially generated up to 1.0 Å, ref ([22])) was transferred to the data sets prior refinement start. Geometry restraints of the inhibitors were obtained from the PRODRG server[39] and from the GRADE Web server (http://grade.globalphasing.org). All guanylhydrazones were modeled in the E configuration, which is in agreement with previous studies with model compounds.[40] Electron density omit maps were calculated in PHENIX[38] (v1.18.2). PYMOL was used for molecular graphics (http://www.pymol.org) and structural alignments. In the case of inhibitor titration experiments with 2, the structure was first built and refined for a crystal soaked at 40 mM. This structure was used to calculate refinements with (for occupancy calculation) and without (for omit map calculation) an inhibitor in the model for three additional crystals independently soaked at 40 mM, 4 mM, and 0.4 mM (Table S2) obtaining R/Rfree-values of 17.3/19.0, 17.5/19.1, and 17.7/19.3, respectively. The occupancy refinement yielded consistent B-factors between the three differently soaked structures (Table S2). Structure factors and coordinates of the complexes of furin with inhibitors 1, 2, at 1 M NaCl; 2 at 0.25 M NaCl; and 3 and 4 have been deposited as PDB entries 7O1U, 7O1W, 7O1Y, 7O20, and 7O22, respectively.

furin = conditions: read-out: Ki furin (reported), cited from earlier work
[4] = 0.4 mM inhibitor, 0.25 M NaCl soak
[5] = 0.4 mM inhibitor, 0.25 M NaCl soak, * very weak electron density
[6] = 4 mM inhibitor, 0.25 M NaCl soak
[7] = 40 mM inhibitor, 0.25 M NaCl soak
[8] = absence of inhibitor, 1:2 dilution series of the substrate

## N=C(N)N/N=C/c1c(Cl)cccc1Cl [guanabenz]
[1]
  pKa: 8.1

## C/C(=N\NC(=N)N)c1cc(N)cc(/C(C)=N/NC(=N)N)c1 [inhibitor 1]
PC5/6
  Ki: 3.6 ± 0.2 µM
PC7
  potency loss / increase of the Ki for PC7 compared with furin: ~7 fold
PC7; pH 7.0, 37 °C
  Ki: 22.4 ± 1.9 µM
Human furin [2]
  Ki: 3.3 ± 0.1 µM

## N=C(N)N/N=C/c1ccc(/C=N/NC(=N)N)cc1 [inhibitor 2]
Human furin [3]; [4]
  occupancy at S1 pocket: 75%
  refined occupancy, molecule 1, S1 pocket: 0.75
Human furin [3]; [5]
  refined occupancy, molecule 2, S4 pocket: 0.39
  refined occupancy, molecule 3, crystal contact site: 0.35
Human furin [3]; [6]
  occupancy at S4 pocket: 63%
  refined occupancy, molecule 1, S1 pocket: 0.87
  refined occupancy, molecule 2, S4 pocket: 0.63
Human furin [3]; 4 mM inhibitor, 0.25 M NaCl soak, * very weak electron density
  refined occupancy, molecule 3, crystal contact site: 0.38
Human furin [3]; [7]
  occupancy at S4 pocket: 82%
  refined occupancy, molecule 1, S1 pocket: 0.94
  refined occupancy, molecule 2, S4 pocket: 0.82
  refined occupancy, molecule 3, crystal contact site: 0.66
Human furin [3]; estimated from inhibitor titration of crystals, 0.25 M NaCl
  apparent dissociation constant at the S4 binding site: low millimolar range
PC5/6
  Ki: 1.7 ± 0.2 µM
PC7
  potency loss / increase of the Ki for PC7 compared with furin: ~3 fold
PC7; pH 7.0, 37 °C
  Ki: 10.4 ± 0.7 µM
Human furin [2]
  Ki: 3.1 ± 0.2 µM

## C/C(=N\NC(=N)N)c1ccccc1 [inhibitor 3]
furin; ref 26
  Ki: 273 µM

## N=C(N)N/N=C/c1ccccc1OCc1ccc(Cl)cc1 [inhibitor 4]
furin; ref 24
  Ki: 11.8 µM
furin; ref 26
  Ki: 25.3 µM

## pyr-ERTKR-7-amino-4-methylcoumarin [reference compound]
PC5/6; [8]
  Km: 2.5 ± 0.2 µM
PC7; absence of inhibitor, 1:2 dilution series of the substrate, pH 7.0, 37 °C
  Km: 19.3 ± 0.8 µM
Human furin [2]; [8]
  Km: 4.7 ± 0.4 µM
